Results on 35 molecules are retold here after patent publication US20230382924A1, “MODULATORS OF CYSTIC FIBROSIS TRANSMEMBRANE CONDUCTANCE REGULATOR” (VERTEX PHARMACEUTICALS INCORPORATED, priority 2020, published 2023).

Like-named read-outs stand apart in the source and are kept apart here.

The test deals with CFTR (Homo sapiens, UniProt P13569). As to the kind of experiment: Membrane Potential Dye, Enteroid Assay A. Type of test: cell-based. To be noted: for EC50: read-out: Ent. A EC50. As to the method: Base medium (ADF+++) consisted of Advanced DMEM/Ham's F12, 2 mM Glutamax, 10 mM HEPES, […] penicillin/streptomycin.
Sequence of CFTR (P13569 with tags, fused parts or gaps DEL508-508): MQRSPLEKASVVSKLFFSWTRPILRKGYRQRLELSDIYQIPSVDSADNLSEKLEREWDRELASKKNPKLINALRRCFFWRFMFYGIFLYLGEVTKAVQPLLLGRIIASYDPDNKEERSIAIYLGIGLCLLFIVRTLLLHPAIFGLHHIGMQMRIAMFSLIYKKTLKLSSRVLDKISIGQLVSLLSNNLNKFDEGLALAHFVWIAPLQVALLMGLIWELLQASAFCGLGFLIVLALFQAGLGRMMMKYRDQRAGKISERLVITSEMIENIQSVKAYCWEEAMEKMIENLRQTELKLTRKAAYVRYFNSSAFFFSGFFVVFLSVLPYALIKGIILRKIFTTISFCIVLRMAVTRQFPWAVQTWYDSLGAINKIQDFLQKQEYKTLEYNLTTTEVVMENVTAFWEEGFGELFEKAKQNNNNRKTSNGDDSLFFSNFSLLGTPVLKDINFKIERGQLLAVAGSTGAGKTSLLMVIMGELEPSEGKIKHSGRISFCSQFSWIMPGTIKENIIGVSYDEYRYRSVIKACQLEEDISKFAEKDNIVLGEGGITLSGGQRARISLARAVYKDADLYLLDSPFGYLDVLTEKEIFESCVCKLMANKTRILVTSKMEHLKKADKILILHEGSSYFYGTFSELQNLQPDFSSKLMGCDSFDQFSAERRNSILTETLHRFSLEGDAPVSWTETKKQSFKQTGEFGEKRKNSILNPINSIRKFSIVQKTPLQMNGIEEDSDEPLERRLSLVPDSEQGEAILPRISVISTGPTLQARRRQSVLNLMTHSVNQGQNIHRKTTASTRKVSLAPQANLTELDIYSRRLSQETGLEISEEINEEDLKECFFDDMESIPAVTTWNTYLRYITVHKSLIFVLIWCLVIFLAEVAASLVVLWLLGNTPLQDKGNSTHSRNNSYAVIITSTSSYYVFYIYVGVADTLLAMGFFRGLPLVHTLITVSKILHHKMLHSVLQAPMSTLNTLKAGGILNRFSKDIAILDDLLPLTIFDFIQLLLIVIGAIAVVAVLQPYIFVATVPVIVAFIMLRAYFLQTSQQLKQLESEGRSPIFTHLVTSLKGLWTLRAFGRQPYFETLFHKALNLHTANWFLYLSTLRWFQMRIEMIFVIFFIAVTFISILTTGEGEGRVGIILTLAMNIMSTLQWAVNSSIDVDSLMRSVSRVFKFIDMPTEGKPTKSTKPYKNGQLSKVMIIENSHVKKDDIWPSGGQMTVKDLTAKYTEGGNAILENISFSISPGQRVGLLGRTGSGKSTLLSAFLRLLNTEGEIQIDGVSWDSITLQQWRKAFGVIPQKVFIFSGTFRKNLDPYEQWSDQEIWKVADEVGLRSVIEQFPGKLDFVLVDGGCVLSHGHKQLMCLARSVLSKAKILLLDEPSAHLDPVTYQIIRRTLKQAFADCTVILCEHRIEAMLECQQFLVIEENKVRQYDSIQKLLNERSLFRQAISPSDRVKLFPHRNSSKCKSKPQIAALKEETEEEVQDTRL
Bath 1 Buffer consisted of 1 mM MgCl2, 160 mM NaCl, 4.5 mM KCl, 10 mM HEPES, 10 mM Glucose, 2 mM CaCl2).
Chloride Free Buffer consisted of 1 mM Magnesium Gluconate, 2 mM Calcium Gluconate, 4.5 mM Potassium Gluconate, 160 mM Sodium Gluconate, 10 mM HEPES, 10 mM Glucose.
Bath 1 Dye Solution consisted of Bath 1 Buffer, 0.04% Pluronic F127, 20 μM Methyl Oxonol, 30 μM CaCCinh-A01, 30 μM Chicago Sky Blue.
Chloride Free Dye Solution consisted of Chloride Free Buffer, 0.04% Pluronic F127, 20 μM Methyl Oxonol, 30 μM CaCCinh-A01, 30 μM Chicago Sky Blue.
3. Enteroid Cell Harvesting and Seeding
Cells were recovered in cell recovery solution, collected by centrifugation at 650 rpm for 5 min at 4° C., resuspended in TryPLE and incubated for 5 min at 37° C. Cells were then collected by centrifugation at 650 rpm for 5 min at 4° C. and resuspended in IEMM containing 10 μM ROCK inhibitor (RI).
4. Membrane Potential Dye, Enteroid Assay A
Briefly, cells were washed 5 times in Bath 1 Buffer. Bath 1 Dye Solution was added, and the cells were incubated for 25 min at room temperature. Following dye incubation, cells were washed 3 times in Chloride Free Dye Solution. Chloride transport was initiated by addition of Chloride Free Dye Stimulation Solution and the fluorescence signal was read for 15 min. […] Chloride transport was then expressed as a percentage of the chloride transport following treatment with 3 μM N-[(6-amino-2-pyridyl)sulfonyl]-6-(3-fluoro-5-isobutoxy-phenyl)-2-[(4S)-2,2,4-trimethylpyrrolidin-1-yl]pyridine-3-carboxamide, 3 μM (R)-1-(2,2-difluorobenzo[d][1,3]dioxol-5-yl)-N-(1-(2,3-dihydroxypropyl)-6-fluoro-2-(1-hydroxy-2-methylpropan-2-yl)-1H-indol-5-yl)cyclopropanecarboxamide and 300 nM acute N-[2,4-bis(1,1-dimethylethyl)-5-hydroxyphenyl]-1,4-dihydro-4-oxoquinoline-3-carboxamide triple combination control (% Activity).

A word on the EC50: it is the concentration at which the effect is half-maximal. `COc1cccc(C)c1-c1cc2nc(n1)NS(=O)(=O)c1cccc(c1)C(=O)N[C@H](CC1CCCCC1)CO2` [Compound 303]: under “Table 8”, the “Ent. A Max Activity” value was “+ (+ is <30%)” and the EC50 is below 1 µM. Consider `CC[C@@H]1COc2cc(-c3c(C)cccc3C)nc(n2)NS(=O)(=O)c2cccc(c2)C(=O)N1` [Compound 353], for which, under “Enteroid Assay A”, the “Ent. A Max Activity” value is listed as “++ (++ is 30-60%)” and the concentration for a half-maximal effect (EC50) was 3 to 30 µM. Take `Cc1cccc(C)c1-c1cc2nc(n1)NS(=O)(=O)c1cccc(c1)C(=O)N[C@@H]1CCN(C3CC4(CCCC4)C3)C[C@H]1O2` (stereo in doubt) [Compound 385]: where the note is “Table 9”, the “Ent. A Max Activity” value was “+ (+ is <30%)” and the EC50 was 3 to 30 µM. Turning to `Cc1cccc(C)c1-c1cc2nc(n1)NS(=O)(=O)c1cccc(c1)C(=O)NCC(c1ccc(C3(C(F)(F)F)CC3)cc1)O2` (single isomer, unassigned) [Compound 10, 6-(2,6-dimethylphenyl)-2,2-dioxo-10-[4-[1-(trifluoromethyl)cyclopropyl]phenyl]-9-oxa-2λ^6-thia-3,5,12,19-tetrazatricyclo[12.3.1.14,8]nonadeca-1(18),4(19),5,7,14,16-hexaen-13-one], the EC50 (Table 8) is below 1 µM. For the molecule `Cc1cccc(C)c1-c1cc2nc(n1)NS(=O)(=O)c1cccc(c1)C(=O)NC[C@@H](c1ccc(C(C)(C)C(F)(F)F)cc1)O2` [Compound 257], under “Table 9”, the “Ent. A Max Activity” value is listed as “+ (+ is <30%)” and the EC50 is below 1 µM. `Cc1cccc(C)c1-c1cc2nc(n1)NS(=O)(=O)c1cccc(c1)C(=O)NC1CCCC[C@@H]1O2` (stereo in doubt) [Compound 485]: the EC50 (Enteroid Assay A) fell in the range of 1 to 3 µM.

On to `CC(C)C[C@@H]1COc2cc(C3=CCC(C)(C)CC3)nc(n2)NS(=O)(=O)c2cccc(c2)C(=O)N1` [Compound 323], for which, under “Enteroid Assay A”, the “Ent. A Max Activity” value is on record as “++ (++ is 30-60%)” and the EC50 lay within 1 to 3 µM. `Cc1cccc(C)c1-c1cc2nc(n1)NS(=O)(=O)c1cccc(c1)C(=O)NC1CC(CN(CCC(C)(C)C)C1)O2` (single isomer, unassigned) [Compound 79, 5-(3,3-dimethylbutyl)-19-(2,6-dimethylphenyl)-2-oxa-15λ^6-thia-5,8,16,18,21-pentaazatetracyclo[15.3.1.13,7.110,14]tricosa-1(20),10,12,14(22),17(21),18-hexaene-9,15,15-trione]: where the note is “Enteroid Assay A”, the “Ent. A Max Activity” value is listed as “++ (++ is 30-60%)” and the EC50 is below 1 µM. Regarding `Cc1cccc(C)c1-c1cc2nc(n1)NS(=O)(=O)c1cccc(c1)C(=O)NC[C@@H](c1ccc(C(C)(F)F)cc1)O2` (stereo in doubt) [Compound 399], for the setting “Table 8”, the “Ent. A Max Activity” value is reported as “+++ (+++ is >60%)” and the EC50 was below 1 µM. Consider `CC(C)C[C@@H]1COc2cc(-c3cc(C(F)(F)F)nn3C)nc(n2)NS(=O)(=O)c2cccc(c2)C(=O)N1` [Compound 338], for which, under “Enteroid Assay A”, the 50% effective concentration (EC50) lay within 3 to 30 µM.

In the case of `Cc1cccc(C)c1-c1cc2nc(n1)NS(=O)(=O)c1cccc(c1)C(=O)NC[C@@H](c1ccc(CCC3(C(F)(F)F)CC3)cc1)O2` [Compound 145], where the note is “Table 9”, the “Ent. A Max Activity” value is given as “++ (++ is 30-60%)” and the EC50 was below 1 µM. Consider `Cc1cccc(C)c1-c1cc2nc(n1)NS(=O)(=O)c1cccc(c1)C(=O)NCC1(CCN(C(=O)C3CCCCN3Cc3ccc(F)cc3)CC1)CO2` (stereo not shown) [Compound 456], for which, where the note is “Enteroid Assay A”, the “Ent. A Max Activity” value is given as “++ (++ is 30-60%)” and the EC50 is 3 to 30 µM. Take `CCC(CC)[C@@H]1COc2cc(-c3c(C)cccc3C)nc(n2)NS(=O)(=O)c2cccc(c2)C(=O)N1` [Compound 386]: where the note is “Table 8”, the “Ent. A Max Activity” value was “+++ (+++ is >60%)” and the EC50 was below 1 µM. For `Cc1cccc(C)c1-c1cc2nc(n1)NS(=O)(=O)c1cccc(c1)C(=O)NCC(c1ccc(-c3ccccc3)cc1)O2` (stereo not shown) [Compound 231], the concentration for a half-maximal effect (EC50) (Table 8) was below 1 µM. In the case of `Cc1ccccc1[C@H]1CNC(=O)c2cccc(c2)S(=O)(=O)Nc2nc(cc(-c3c(C)cccc3C)n2)O1` (stereo in doubt) [Compound 277], the “Ent. A Max Activity” value (Table 8) is on record as “+ (+ is <30%)”.

For the molecule `Cc1cccc(C)c1-c1cc2nc(n1)NS(=O)(=O)c1cccc(c1)C(=O)NCC(c1ccc(OC(C)C)cc1)O2` (stereo not shown) [Compound 249], the EC50 (Table 8) is below 1 µM.

As for `Cc1cccc(C)c1-c1cc2nc(n1)NS(=O)(=O)c1cccc(c1)C(=O)NCC1(CCN(C(=O)c3cc4ccccc4n3CC#N)CC1)CO2` [Compound 452], where the note is “Enteroid Assay A”, the “Ent. A Max Activity” value is listed as “++ (++ is 30-60%)” and the half-maximal effective concentration (EC50) was in the range of 1 to 3 µM. With `Cc1cccc(C)c1-c1cc2nc(n1)NS(=O)(=O)c1cccc(c1)C(=O)NCC(c1ccc(C34CC(C3)C4)cc1)O2` (stereo not shown) [Compound 397], for the setting “Table 9”, the “Ent. A Max Activity” value was “+ (+ is <30%)” and the EC50 fell in the range of 3 to 30 µM. `Cc1cccc(C)c1-c1cc2nc(n1)NS(=O)(=O)c1cccc(c1)C(=O)N[C@@H]1CCCC[C@@H]1O2` [Compound 363]: where the note is “Enteroid Assay A”, the “Ent. A Max Activity” value is “++ (++ is 30-60%)” and the EC50 lay within 1 to 3 µM. Take `Cc1ccccc1[C@@H]1CNC(=O)c2cccc(c2)S(=O)(=O)Nc2nc(cc(-c3c(C)cccc3C)n2)O1` [Compound 276]: where the note is “Table 8”, the concentration giving a half-maximal response (EC50) was below 1 µM. For `CC(C)C[C@@H]1COc2cc(N3C(C)CCC3C)nc(n2)NS(=O)(=O)c2cccc(c2)C(=O)N1` (stereo partly shown) [Compound 309], the “Ent. A Max Activity” value (Table 8) was “+ (+ is <30%)”. `Cc1cccc(C)c1-c1cc2nc(n1)NS(=O)(=O)c1cccc(c1)C(=O)N[C@@H](CC(C)C)CO2` [Compound 491]: for the setting “Enteroid Assay A”, the concentration for a half-maximal effect (EC50) was in the range of 1 to 3 µM. As to `CCC1CCC(c2cc3nc(n2)NS(=O)(=O)c2cccc(c2)C(=O)N[C@H](CC(C)C)CO3)CC1` (stereo partly shown) [Compound 310], the EC50 (Table 8) was below 1 µM. Regarding `Cc1cccc(C)c1-c1cc2nc(n1)NS(=O)(=O)c1cccc(c1)C(=O)N[C@@H](CC(F)(F)F)CO2` (single isomer, unassigned) [Compound 94, 6-(2,6-dimethylphenyl)-11-(2,2,2-trifluoroethyl)-9-oxa-2λ^6-thia-3,5,12,19-tetraazatricyclo[12.3.1.14,8]nonadeca-1(17),4(19),5,7,14(18),15-hexaene-2,2,13-trione], where the note is “Table 9”, the “Ent. A Max Activity” value is “+++ (+++ is >60%)” and the EC50 lay in the range of 1 to 3 µM. Regarding `Cc1cccc(C)c1-c1cc2nc(n1)NS(=O)(=O)c1cccc(c1)C(=O)NCC(c1ccc(Br)cc1)O2` (single isomer, unassigned) [Compound 20, 10-(4-bromophenyl)-6-(2,6-dimethylphenyl)-2,2-dioxo-9-oxa-2λ^6-thia-3,5,12,19-tetrazatricyclo[12.3.1.14,8]nonadeca-1(18),4(19),5,7,14,16-hexaen-13-one], the concentration for a half-maximal effect (EC50) (Table 8) was below 1 µM. Regarding `Cc1cccc(C)c1-c1cc2nc(n1)NS(=O)(=O)c1cccc(c1)C(=O)NCC1(CCN(C(=O)CC(C)(C)C)CC1)CO2` [Compound 481], the “Ent. A Max Activity” value (Enteroid Assay A) is recorded as “++ (++ is 30-60%)”. As for `CCOc1ccccc1-c1cc2nc(n1)NS(=O)(=O)c1cccc(c1)C(=O)N[C@H](CC(C)C)CO2` [Compound 328], under “Enteroid Assay A”, the “Ent. A Max Activity” value was “++ (++ is 30-60%)” and the concentration for a half-maximal effect (EC50) was in the range of 1 to 3 µM. Consider `Cc1cccc(C)c1-c1cc2nc(n1)NS(=O)(=O)c1cccc(c1)C(=O)NCC(c1ccc(CC[Si](C)(C)C)cc1)O2` (stereo not shown) [Compound 127], for which the EC50 (Table 9) is below 1 µM. Regarding `Cc1cccc(C)c1-c1cc2nc(n1)NS(=O)(=O)c1cccc(c1)C(=O)NCC1(CCN(CCC(C)(C)C)CC1)CO2` [Compound 443], for the setting “Enteroid Assay A”, the “Ent. A Max Activity” value is “++ (++ is 30-60%)”.

For the molecule `Cc1ccccc1C1CNC(=O)c2cccc(c2)S(=O)(=O)Nc2nc(cc(-c3c(C)cccc3C)n2)O1` (stereo not shown) [Compound 279], where the note is “Table 8”, the “Ent. A Max Activity” value is reported as “+++ (+++ is >60%)” and the EC50 is below 1 µM. The corresponding values for `Cc1cccc(C)c1-c1cc2nc(n1)NS(=O)(=O)c1cccc(c1)C(=O)NCC(c1ccc(CC(C)(C)C)cc1)O2` (stereo not shown) [Compound 267] are “+++ (+++ is >60%)” and below 1 µM.

For `Cc1cccc(C)c1-c1cc2nc(n1)NS(=O)(=O)c1cccc(c1)C(=O)N[C@H](CCC(F)(F)F)CO2` (stereo in doubt) [Compound 190], for the setting “Table 8”, the “Ent. A Max Activity” value was “+++ (+++ is >60%)” and the 50% effective concentration (EC50) was below 1 µM. For `Cc1cccc(C)c1-c1cc2nc(n1)NS(=O)(=O)c1cccc(c1)C(=O)N[C@H](C)[C@H](c1ccc(C(C)(C)C)cc1)O2` [Compound 134], for the setting “Table 8”, the “Ent. A Max Activity” value was “+ (+ is <30%)” and the EC50 is below 1 µM.

For the molecule `Cc1nc(C(F)(F)F)c(C(=O)N2CCC3(CC2)CNC(=O)c2cccc(c2)S(=O)(=O)Nc2nc(cc(-c4c(C)cccc4C)n2)OC3)s1` [Compound 460], for the setting “Enteroid Assay A”, the “Ent. A Max Activity” value is reported as “++ (++ is 30-60%)”.

Turning to `Cc1cccc(C)c1-c1cc2nc(n1)NS(=O)(=O)c1cccc(c1)C(=O)NCC1(CCN(C(=O)c3c(C)c4ccccc4n3C)CC1)CO2` [Compound 455], for the setting “Enteroid Assay A”, the “Ent. A Max Activity” value is reported as “++ (++ is 30-60%)” and the half-maximal effective concentration (EC50) is 1 to 3 µM.
